From patent publication US11000529B2, “Human papilloma virus replication inhibitors” (Icosagen Cell Factory OÜ, priority 2015, dated 2021)
“Also recorded” adds a separate entry of the source.

Key:
HPV18 [1] = test: Vegetative amplification of HPV18 in U2OS #1.13 cells, confluent; assay type: cell-based; settings: U2OS #1.13, confluent, compounds added on 5th day for additional 7 days
Description: (§1) FIG. 3 Effect of compounds on stable maintenance and vegetative amplification of HPV18. A: U2OS #1.13 cells were grown in subconfluent conditions in the presence of the identified five compounds for 7 days. Genomic DNA was extracted, linearized and HPV replication signal was detected by Southern Blot and B: quantified by phosphoimager. C: U2OS #1.13 were seeded and grown for 5 days without splitting. On the 5th day indicated concentrations of compounds were added to the media and the cells were grown for additional 7 days without splitting. On the 12th day genomic DNA was extracted, linearized and HPV replication signal was detected by Southern Blot and D: quantified by phosphoimager. Error-bars represent standard deviations from at least two independent experiments.
If #1.13 is grown in confluent conditions for at least 5 days, vegetative amplification of HPV genome is turned on. We seeded equal amounts of cells onto plates and grew them for 5 days without splitting. On the 5th day various concentrations of compound were added and the cells were grown for additional 7 days (media was changed every two days throughout the experiment). HPV replication signal was detected by Southern Blot analyses and quantified with phosphoimager.

HPV18 [2] = test: Stable maintenance of HPV18 in U2OS #1.13 cells, subconfluent; assay type: cell-based; settings: U2OS #1.13, subconfluent, 7 days
Description: as §1
Our U2OScell-based system is suitable for studying all three replication stages of various HPV subtypes. Stable maintenance phase could be monitored by maintaining HPV-positive cells in subconfluent conditions. We used HPV18 positive monoclonal U2OS cell-line #1.13 with viral copy number ˜2000. We grew the #1.13 cells in the presence of various concentration of compounds in subconfluent conditions (cells were split every three days) for 7 days. HPV18 replication signal was detected by Southern blot analyses and quantified with phosphoimager. About 50% of the signal was lost in case of compound 82269 compared to the DMSO control (FIG. 3, panel A, compare lanes 4-6 with lane 15 and panel B).

HPV18 [3] = test: HPV18 replication in U2OS-EBNA1 cells, compounds alone or with CPT; assay type: cell-based; settings: U2OS-EBNA1, with 2 nM CPT, 5 days
Description: FIG. 5 Synergistic effect between Camptothecin (CPT) and the identified five compounds. U2OS-EBNA1 cells were transfected with HPV18 wt and oriP plasmids and grown in the presence of indicated concentrations of the compounds alone or together with 2 nM CPT for 5 days. Genomic DNA was extracted, linearized and digested with DpnI. Both HPV18 and oriP replication signals were detected with Southern Blot and quantified by phosphoimager. […] Error-bars represent standard deviations from at least three independent experiments.
(§2) Replication assay. The U2OS or U2OS-EBNA1 cells were transfected with 2 ug of HPV18 minicircle genome and lug of oriP plasmid (only in case of U2OS-EBNA1 cells). All the compounds were added to the media immediately after the transfection and media was changed on the third day. Replication signals were detected with Southern Blot method. Briefly, genomic DNA was extracted 3 and 4 days after the transfection with sh_RNAs or with the use of ABT-888 and 5 days after for analyses of the effects of HPV inhibitors w/wo CPT. DNA was digested with BglI and DpnI for analyses of HPV18 replication and with BstXI, ScaI and DpnI for analyses of HPV18 and oriP replication simultaneously. 3 ug of DNA was resolved in agarose gel, transferred to a nylon membrane (Membrane Solutions LLC) and hybridized with specific radioactively labeled probes. Signals were detected and quantified with Typhoon Trio+ phosphoimager (GE Healthcare) and exposed on an X-ray film (AGFA).
Synergistic effect of Campthotecin (CPT) and HPV18 replication inhibitors. CPT is a Topoisomerase I inhibitor that stabilizes entrapped Top1cc complexes to DNA. Since Tdp1 is responsible for cleaving entrapped Top1cc complexes from DNA, synergistic effect between CPT and Tdp1 inhibitors occurs. In the experiments shown in FIG. 5 we used U2OS cells constitutively expressing Epstein Barr virus (EBV) EBNA1 protein—U2OS-EBNA1. These cells allow to monitor HPV and EBNA1 supported oriP plasmid replication simultaneously. […] U2OS-EBNA1 cells were cotransfected with HPV18 genome and oriP plasmid and the cells were grown in the presence of various concentrations of the identified HPV inhibitors alone or together with 2 nM of CPT for 5 days, DMSO was used as vehicle control.

Tdp = Tdp (Homo sapiens, UniProt Q9NUW8); settings: known from the literature; cited from earlier work
Sequence of Tdp (Q9NUW8 whole entry): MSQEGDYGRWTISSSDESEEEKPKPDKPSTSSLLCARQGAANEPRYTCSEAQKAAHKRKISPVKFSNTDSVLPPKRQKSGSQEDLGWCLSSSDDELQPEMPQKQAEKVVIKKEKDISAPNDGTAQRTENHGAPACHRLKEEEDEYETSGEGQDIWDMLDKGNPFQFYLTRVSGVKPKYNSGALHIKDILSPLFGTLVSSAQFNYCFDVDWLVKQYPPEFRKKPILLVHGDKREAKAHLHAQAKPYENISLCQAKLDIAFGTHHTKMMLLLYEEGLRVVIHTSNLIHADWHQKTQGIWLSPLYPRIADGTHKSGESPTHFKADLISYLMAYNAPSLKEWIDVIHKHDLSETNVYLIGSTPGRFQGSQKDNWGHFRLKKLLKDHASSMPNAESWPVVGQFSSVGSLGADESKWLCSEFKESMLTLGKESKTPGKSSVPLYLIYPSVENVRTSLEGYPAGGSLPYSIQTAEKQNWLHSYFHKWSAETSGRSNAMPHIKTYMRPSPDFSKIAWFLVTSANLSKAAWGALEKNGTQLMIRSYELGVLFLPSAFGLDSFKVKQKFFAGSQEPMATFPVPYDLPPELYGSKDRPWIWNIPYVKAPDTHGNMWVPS

HPV18 [4] = test: HPV18 initial amplification replication assay in U2OS cells (Southern Blot); assay type: cell-based
Description: FIG. 2 Effect of the identified five compounds on HPV18 initial amplification. A: U2OS cells were transfected with HPV18 wt minicircle and grown in the presence of the compounds with indicated concentrations for 5 days. Genomic DNA was extracted, linearized, and digested with DpnI. HPV genome replication signals were detected using Southern Blot analyses and quantified with phosphoimager and expressed relative to vehicle control (DMSO). Approximate IC50 values are shown for each compound. Error-bars represent standard deviation from at least three independent experiment. B: U2OS cells were transfected with the expression vectors of HPV18 E1 and E2 proteins together with HPV18 URR (origin) minicircle plasmid. The cells were grown in the presence of the compounds with indicated concentrations for 24 or 48 hours. Genomic DNA was extracted, linearized and digested with DpnI. HPV URR replication signals were detected by Southern Blot analyses. DMSO serves as vehicle control and M 18URR serves as size marker.
as §2
for compounds inhibiting initial amplification of HPV18 genome in U2OS cells. HT-screening was conducted with all the compounds in this library in 5 uM and 1 uM concentrations and it gave us 80 hits (approximately 5% of analyzed compounds). After validation of the hits on HPV18 wt genome, we found five compounds inhibiting initial amplification of HPV18 in U2OS cells (FIG. 1). To further characterize the compounds, we performed replication assay described in Example 1.

HPV18E1E2 mutant genome = HPV18E1E2 mutant genome replicated by HPV11 E1 and E2 in U2OS cells; assay type: cell-based, HPV18; settings: U2OS co-transfected with HPV18E1E2 mutant and HPV11 wt minicircle, 5 days
Description: Besides oncoproteins E6 and E7, HPVs differ from replication proteins E1 and E2 as well. To determine if the compounds identified here inhibit the replication of HR but not LR or cutaneous HPVs through E1 or E2, HPV18E1E2 mutant genome (deficient in replication due to mutations in the ORFs of E1 and E2) was replicated by E1 and E2 proteins originating from HPV11. HPV18E1E2 mutant genome alone was used as control. U2OS cells were co-transfected with HPV18E1E2 mutant and HPV11 wt mini circle genome and the cells were grown in the presence of compound 305831 for 5 days, media was changed on the 3rd day. DMSO was added as vehicle control. Genomic DNA was extracted, HPV DNA was digested with AgeI, SdaI and DpnI. HPV replication was detected by Southern Blot analyses. Results on FIG. 7 show, that HPV18E1E2 mutant genome is indeed replication-deficient when transfected alone (lane 7). […] The activity of LR-HPV E1 and E2 proteins or their interactome seem to be different compared to HR-HPV replication proteins.

Structure (SMILES): [H]/N=C(\N)c1ccc(-c2ccc(-c3ccc(C(=N)N)cc3)o2)cc1 [NSC 305831]
- effect on vegetative amplification of HPV18 (HPV18 [1]): almost completely abolished amplification; also recorded: clearly inhibit
- effect on stable maintenance of HPV18 (HPV18 [2]): clearly inhibit
- HPV18 replication signal lost (HPV18 [2]; compared to DMSO control): about 70%
- synergistic effect together with CPT on HPV18 replication (HPV18 [3]): clear concentration dependent synergistic effect; also recorded: clear synergistic inhibition
- Tdp inhibition (Tdp): known to inhibit Tdp
- IC50 (HPV18 [4]; 120 h, read-out: IC50 of HPV18 initial amplification): 2.5 to 60 µM
- inhibition of HPV18 initial amplification (HPV18 [4]; HPV18 wt minicircle, 5 days, Southern Blot, relative to DMSO): concentration-dependent inhibition
- HPV18 replication carried out by E1 and E2 proteins originating from HPV11 (HPV18E1E2 mutant genome): no inhibition of HPV18 replication
